The values below come from US11759462B2, “Spirocyclic compounds as tryptophan hydroxylase inhibitors” (priority 2013, dated 2023).

For orientation: IC50 means the concentration at which inhibition is half-maximal.

One experiment concerns the target T1, Recombinant human TPH1 (MBP tagged) (Homo sapiens, UniProt P17752).
T1 construct: cloning full length human TPH1 cDNA in to a bacterial pMAL-c5E expression vector; made in house; host or cells: E. coli BL21 (DE3)
T1 sequence (P17752 1-444): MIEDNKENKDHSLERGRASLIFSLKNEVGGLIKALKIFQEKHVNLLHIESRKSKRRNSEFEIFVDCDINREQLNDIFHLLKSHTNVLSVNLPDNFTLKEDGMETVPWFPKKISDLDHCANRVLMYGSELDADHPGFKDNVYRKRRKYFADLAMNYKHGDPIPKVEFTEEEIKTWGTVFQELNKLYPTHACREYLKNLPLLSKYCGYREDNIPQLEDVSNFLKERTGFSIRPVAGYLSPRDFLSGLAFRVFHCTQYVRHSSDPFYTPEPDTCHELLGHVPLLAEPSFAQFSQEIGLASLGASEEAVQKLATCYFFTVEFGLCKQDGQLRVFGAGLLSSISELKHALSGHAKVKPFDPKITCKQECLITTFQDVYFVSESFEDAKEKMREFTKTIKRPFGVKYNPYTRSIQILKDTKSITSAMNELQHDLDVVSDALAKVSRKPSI
Nature of the experiment: TPH1 in vitro inhibition assay (kinetic fluorescence). It counts as biochemical. The conditions noted are these: TPH1 Range (TPH1 inhibition IC50). The method in brief: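 Final mix: 15 nM MBP-TPH1, 30 μM Trp, 36 μM 6-methyltetrahydropterin, 25 μM ferrous ammonium sulfate, 50 mM MES pH 7.1, 1% DMSO, room temperature.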
`Nc1nc(O[C@H](c2ccc(-c3ccc4ncc(F)cc4c3)cc2)C(F)(F)F)cc(N2CCC3(CC2)CN[C@H](C(=O)O)C3)n1` [Example 55dc, (S)-8-(2-amino-6-((R)-2,2,2-trifluoro-1-(4-(3-fluoroquinolin-6-yl)phenyl)ethoxy)pyrimidin-4-yl)-2,8-diazaspiro[4.5]decane-3-carboxylic acid]: the IC50 was below 50 nM.

Staying with this experiment, now noted: read-out: TPH1 Range (TPH1 inhibition IC50).
As for `Nc1nc(O[C@H](c2ccc(-c3coc4ccccc34)cc2)C(F)(F)F)cc(N2CCC3(CC2)CN[C@H](C(=O)O)C3)n1` [Example 55cz, (S)-8-(2-amino-6-((R)-1-(4-(benzofuran-3-yl)phenyl)-2,2,2-trifluoroethoxy)pyrimidin-4-yl)-2,8-diazaspiro[4.5]decane-3-carboxylic acid], the IC50 fell in the range of 50 to 300 nM.

Take `Nc1nc(O[C@H](c2ccc(-c3ccc4[nH]cnc4c3)cc2)C(F)(F)F)cc(N2CCC3(CC2)CN[C@H](C(=O)O)C3)n1` [Example 55d, (S)-8-(6-((R)-1-(4-(1H-benzo[d]imidazol-5-yl)phenyl)-2,2,2-trifluoroethoxy)-2-aminopyrimidin-4-yl)-2,8-diazaspiro[4.5]decane-3-carboxylic acid]: the half-inhibitory concentration (IC50) is below 50 nM.

Regarding `COc1ccc(F)cc1-c1ccc([C@@H](Oc2cc(N3CCC4(CC3)CN[C@H](C(=O)O)C4)nc(N)n2)C(F)(F)F)cc1` [Example 55da, (S)-8-(2-amino-6-((R)-2,2,2-trifluoro-1-(5′-fluoro-2′-methoxy-[1,1′-biphenyl]-4-yl)ethoxy)pyrimidin-4-yl)-2,8-diazaspiro[4.5]decane-3-carboxylic acid], the IC50 is 300 to 3000 nM.

As to `Nc1nc(O[C@H](c2ccc(-c3ccc4c(c3)OC(=O)CC4)cc2)C(F)(F)F)cc(N2CCC3(CC2)CN[C@H](C(=O)O)C3)n1` [Example 55db, (S)-8-(2-amino-6-((R)-2,2,2-trifluoro-1-(4-(2-oxochroman-7-yl)phenyl)ethoxy)pyrimidin-4-yl)-2,8-diazaspiro[4.5]decane-3-carboxylic acid], the concentration for half-maximal inhibition (IC50) is 300 to 3000 nM.

Consider `CCCOc1ccc(-c2ccc([C@@H](Oc3cc(N4CCC5(CC4)CN[C@H](C(=O)O)C5)nc(N)n3)C(F)(F)F)cc2)cc1` [Example 55dd, (S)-8-(2-amino-6-((R)-2,2,2-trifluoro-1-(4′-propoxy-[1,1′-biphenyl]-4-yl)ethoxy)pyrimidin-4-yl)-2,8-diazaspiro[4.5]decane-3-carboxylic acid], for which the IC50 was in the range of 50 to 300 nM.

Consider `CCN(CC)C(=O)c1ccc(-c2ccc([C@@H](Oc3cc(N4CCC5(CC4)CN[C@H](C(=O)O)C5)nc(N)n3)C(F)(F)F)cc2)cc1` [Example 55de, (S)-8-(2-amino-6-((R)-1-(4′-(diethylcarbamoyl)-[1,1′-biphenyl]-4-yl)-2,2,2-trifluoroethoxy)pyrimidin-4-yl)-2,8-diazaspiro[4.5]decane-3-carboxylic acid], for which the IC50 is 50 to 300 nM.

Consider `NC(=O)c1ccc(-c2ccc([C@@H](Oc3cc(N4CCC5(CC4)CN[C@H](C(=O)O)C5)nc(N)n3)C(F)(F)F)cc2)cc1` [Example 55df, (S)-8-(2-amino-6-((R)-1-(4′-carbamoyl-[1,1′-biphenyl]-4-yl)-2,2,2-trifluoroethoxy)pyrimidin-4-yl)-2,8-diazaspiro[4.5]decane-3-carboxylic acid], for which the half-inhibitory concentration (IC50) was in the range of 50 to 300 nM.

With `CNC(=O)c1ccc(-c2ccc([C@@H](Oc3cc(N4CCC5(CC4)CN[C@H](C(=O)O)C5)nc(N)n3)C(F)(F)F)cc2)cc1` [Example 55dg, (S)-8-(2-amino-6-((R)-2,2,2-trifluoro-1-(4′-(methylcarbamoyl)-[1,1′-biphenyl]-4-yl)ethoxy)pyrimidin-4-yl)-2,8-diazaspiro[4.5]decane-3-carboxylic acid], the IC50 fell in the range of 50 to 300 nM.

As for `Nc1nc(O[C@H](c2ccc(-c3ccc(C(=O)NCCN4CCOCC4)cc3)cc2)C(F)(F)F)cc(N2CCC3(CC2)CN[C@H](C(=O)O)C3)n1` [Example 55dh, (S)-8-(2-amino-6-((R)-2,2,2-trifluoro-1-(4′-((2-morpholinoethyl)carbamoyl)-[1,1′-biphenyl]-4-yl)ethoxy)pyrimidin-4-yl)-2,8-diazaspiro[4.5]decane-3-carboxylic acid], the IC50 lay within 50 to 300 nM.

In the case of `CS(=O)(=O)c1ccc(-c2ccc([C@@H](Oc3cc(N4CCC5(CC4)CN[C@H](C(=O)O)C5)nc(N)n3)C(F)(F)F)cc2)cc1` [Example 55di, (S)-8-(2-amino-6-((R)-2,2,2-trifluoro-1-(4′-(methylsulfonyl)-[1,1′-biphenyl]-4-yl)ethoxy)pyrimidin-4-yl)-2,8-diazaspiro[4.5]decane-3-carboxylic acid], the IC50 fell in the range of 50 to 300 nM.

As for `Nc1nc(O[C@H](c2ccc(-c3ccc(S(N)(=O)=O)cc3)cc2)C(F)(F)F)cc(N2CCC3(CC2)CN[C@H](C(=O)O)C3)n1` [Example 55dj, (S)-8-(2-amino-6-((R)-2,2,2-trifluoro-1-(4′-sulfamoyl-[1,1′-biphenyl]-4-yl)ethoxy)pyrimidin-4-yl)-2,8-diazaspiro[4.5]decane-3-carboxylic acid], the 50% inhibitory concentration (IC50) fell in the range of 50 to 300 nM.

As to `Nc1nc(O[C@H](c2ccc(-c3ccc(C(=O)N4CCNCC4)cc3)cc2)C(F)(F)F)cc(N2CCC3(CC2)CN[C@H](C(=O)O)C3)n1` [Example 55dl, (S)-8-(2-amino-6-((R)-2,2,2-trifluoro-1-(4′-(piperazine-1-carbonyl)-[1,1′-biphenyl]-4-yl)ethoxy)pyrimidin-4-yl)-2,8-diazaspiro[4.5]decane-3-carboxylic acid], the concentration for half-maximal inhibition (IC50) was 50 to 300 nM.

`CCCOc1ccc(-c2ccc([C@@H](Oc3cc(N4CCC5(CC4)CN[C@H](C(=O)O)C5)nc(N)n3)C(F)(F)F)cc2)cc1F` [Example 55dm, (S)-8-(2-amino-6-((R)-2,2,2-trifluoro-1-(3′-fluoro-4′-propoxy-[1,1′-biphenyl]-4-yl)ethoxy)pyrimidin-4-yl)-2,8-diazaspiro[4.5]decane-3-carboxylic acid]: the IC50 lay within 50 to 300 nM.

For `CCOc1ccc(-c2ccc([C@@H](Oc3cc(N4CCC5(CC4)CN[C@H](C(=O)O)C5)nc(N)n3)C(F)(F)F)cc2)cc1F` [Example 55dn, (S)-8-(2-amino-6-((R)-1-(4′-ethoxy-3′-fluoro-[1,1′-biphenyl]-4-yl)-2,2,2-trifluoroethoxy)pyrimidin-4-yl)-2,8-diazaspiro[4.5]decane-3-carboxylic acid], the half-inhibitory concentration (IC50) was 50 to 300 nM.

As to `CCOc1ccc(-c2ccc([C@@H](Oc3cc(N4CCC5(CC4)CN[C@H](C(=O)O)C5)nc(N)n3)C(F)(F)F)cc2)cc1` [Example 55do, (S)-8-(2-amino-6-((R)-1-(4′-ethoxy-[1,1′-biphenyl]-4-yl)-2,2,2-trifluoroethoxy)pyrimidin-4-yl)-2,8-diazaspiro[4.5]decane-3-carboxylic acid], the IC50 was below 50 nM.

As for `Nc1nc(O[C@H](c2ccc(-c3ccc4nnccc4c3)cc2)C(F)(F)F)cc(N2CCC3(CC2)CN[C@H](C(=O)O)C3)n1` [Example 55dp, (S)-8-(2-amino-6-((R)-1-(4-(cinnolin-6-yl)phenyl)-2,2,2-trifluoroethoxy)pyrimidin-4-yl)-2,8-diazaspiro[4.5]decane-3-carboxylic acid], the IC50 is below 50 nM.

As for `Nc1nc(O[C@H](c2ccc(-c3ccc4c(c3)CCCO4)cc2)C(F)(F)F)cc(N2CCC3(CC2)CN[C@H](C(=O)O)C3)n1` [Example 55dq, (S)-8-(2-amino-6-((R)-1-(4-(chroman-6-yl)phenyl)-2,2,2-trifluoroethoxy)pyrimidin-4-yl)-2,8-diazaspiro[4.5]decane-3-carboxylic acid], the half-inhibitory concentration (IC50) was below 50 nM.

Regarding `COc1ccc(-c2ccc([C@@H](Oc3cc(N4CCC5(CC4)CN[C@H](C(=O)O)C5)nc(N)n3)C(F)(F)F)cc2)cc1F` [Example 55e, (S)-8-(2-amino-6-((R)-2,2,2-trifluoro-1-(3′-fluoro-4′-methoxy-[1,1′-biphenyl]-4-yl)ethoxy)pyrimidin-4-yl)-2,8-diazaspiro[4.5]decane-3-carboxylic acid], the IC50 was 50 to 300 nM.

Turning to `Nc1nc(O[C@H](c2ccc(-c3ccc4cnsc4c3)cc2)C(F)(F)F)cc(N2CCC3(CC2)CN[C@H](C(=O)O)C3)n1` [Example 55f, (S)-8-(2-amino-6-((R)-1-(4-(benzo[d]isothiazol-6-yl)phenyl)-2,2,2-trifluoroethoxy)pyrimidin-4-yl)-2,8-diazaspiro[4.5]decane-3-carboxylic acid], the half-maximal inhibitory concentration (IC50) lay in the range of 50 to 300 nM.

On to `Nc1nc(O[C@H](c2ccc(-c3ccc4cnoc4c3)cc2)C(F)(F)F)cc(N2CCC3(CC2)CN[C@H](C(=O)O)C3)n1` [Example 55g, (S)-8-(2-amino-6-((R)-1-(4-(benzo[d]isoxazol-6-yl)phenyl)-2,2,2-trifluoroethoxy)pyrimidin-4-yl)-2,8-diazaspiro[4.5]decane-3-carboxylic acid], for which the concentration for half-maximal inhibition (IC50) was in the range of 300 to 3000 nM.

For the compound `Nc1nc(O[C@H](c2ccc(-c3ccc4cn[nH]c4c3)cc2)C(F)(F)F)cc(N2CCC3(CC2)CN[C@H](C(=O)O)C3)n1` [Example 55h, (S)-8-(6-((R)-1-(4-(1H-indazol-6-yl)phenyl)-2,2,2-trifluoroethoxy)-2-aminopyrimidin-4-yl)-2,8-diazaspiro[4.5]decane-3-carboxylic acid], the half-inhibitory concentration (IC50) was 50 to 300 nM.

On to `Cn1ncc2ccc(-c3ccc([C@@H](Oc4cc(N5CCC6(CC5)CN[C@H](C(=O)O)C6)nc(N)n4)C(F)(F)F)cc3)cc21` [Example 55i, (S)-8-(2-amino-6-((R)-2,2,2-trifluoro-1-(4-(1-methyl-1H-indazol-6-yl)phenyl)ethoxy)pyrimidin-4-yl)-2,8-diazaspiro[4.5]decane-3-carboxylic acid], for which the IC50 is below 50 nM.
